Legend:
mouse RORγ = molecular target: T1, mouse RORγ (Mus musculus, UniProt P51450); assay: Luciferase reporter gene assay of inhibitory effect against RORγ transcriptional activity (GAL4-mRORγ plasmid in CHO cells); format: cell-based; settings: read-out: LUC EC50 (μM) mRORg
T1 construct: mouse, NM_011281.2 and from Ile251 to Lys516; expressed in transfected cells; host or cells: CHO cells (transient co-transfection with pG5-Luc reporter)
T1 sequence (P51450 251-516): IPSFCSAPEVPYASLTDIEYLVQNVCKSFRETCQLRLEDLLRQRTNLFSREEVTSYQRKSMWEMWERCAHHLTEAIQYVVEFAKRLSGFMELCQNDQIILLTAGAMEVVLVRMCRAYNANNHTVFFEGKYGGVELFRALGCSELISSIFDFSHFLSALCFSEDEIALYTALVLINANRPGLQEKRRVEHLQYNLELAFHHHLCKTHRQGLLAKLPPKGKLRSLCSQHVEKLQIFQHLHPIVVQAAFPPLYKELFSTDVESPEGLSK
Method in brief: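 Readout is intracellular luciferase after 2-day compound exposure (8 concentrations, 0.1% DMSO) in CHO cells expressing GAL4 fused to mouse RORγ LBD residues Ile251–Lys516 plus pG5-Luc reporter. EC50 fitted from %-of-control; points showing resazurin-detected cytotoxicity dropped.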

human RORγ = molecular target: T2, human RORγ (Homo sapiens, UniProt P51449); assay: Luciferase reporter gene assay of inhibitory effect against RORγ transcriptional activity (GAL4-hRORγ plasmid in CHO cells); format: cell-based; settings: read-out: LUC EC50 (μM) hRORg
T2 construct: human, NM_005060.3 and from Ser253 to Lys518; expressed in transfected cells; host or cells: CHO cells (transient co-transfection with pG5-Luc reporter)
T2 sequence (P51449 253-518): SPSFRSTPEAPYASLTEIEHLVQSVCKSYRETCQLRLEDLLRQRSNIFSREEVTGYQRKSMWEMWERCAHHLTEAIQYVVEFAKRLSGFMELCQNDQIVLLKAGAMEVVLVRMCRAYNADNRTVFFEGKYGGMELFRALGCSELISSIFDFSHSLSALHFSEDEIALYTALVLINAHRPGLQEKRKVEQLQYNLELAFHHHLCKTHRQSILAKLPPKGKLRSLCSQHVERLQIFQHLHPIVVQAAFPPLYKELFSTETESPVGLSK

Structure (SMILES)	EC50 (mouse RORγ)	EC50 (human RORγ)
CCn1c(CCCC(C)(C)C)nnc1[C@H]1CN(C(C)=O)C[C@@H]1C(=O)Nc1ccc(C)cc1C (racemic) [Example F-351]	< 3 µM	< 3 µM
CC(=O)N1C[C@H](C(=O)Nc2ccc(C)cc2C)[C@@H](c2nnc(CCCC(C)(C)C)n2CC(F)(F)F)C1 (racemic) [Example F-356]	< 3 µM	< 3 µM
Cc1ccc(NC(=O)CC(CCO)c2nnc(C(F)(F)CCC(C)(C)C)n2C2CC2)c(C)c1 (racemic) [Example F-366]	< 3 µM	< 3 µM
Cc1ccc(NC(=O)CCc2nnc(C(O)CCC(C)(C)C)n2C2CC2)c(C)c1 (racemic) [Example F-367]	< 3 µM	> 3 µM
CC(=O)N1C[C@H](C(=O)Nc2ccc(C)cc2C)[C@@H](c2nnc(-c3cnn(C(C)C)c3)n2C2CC2)C1 (racemic) [Example F-368]	> 3 µM	> 3 µM
C=CCC(CC(=O)Nc1ccc(C)cc1C)c1nnc(CCCC(C)(C)C)n1CC(F)(F)F (racemic) [Example F-373]	< 3 µM	< 3 µM
C=CCC(CC(=O)Nc1ccc(C)cc1C)c1nnc(C(F)(F)CCC(C)(C)C)n1C1CC1 (racemic) [Example F-376]	< 3 µM	< 3 µM
CC(=O)N1C[C@H](C(=O)Nc2ccc(C)cc2C)[C@@H](c2nnc([C@H]3C[C@@H](OC(C)(C)C)C3)n2C2CC2)C1 (racemic) [Example F-382]	< 3 µM	< 3 µM
Cc1ccc(NC(=O)[C@H]2CN(C)CC[C@@H]2c2nnc(CCCC(C)(C)C)n2C2CC2)c(C)c1 (racemic) [Example F-394]	< 3 µM	< 3 µM
Cc1ccc(NC(=O)[C@H]2CCN(C)C[C@@H]2c2nnc(CCCC(C)(C)C)n2C2CC2)c(C)c1 (racemic) [Example F-395]	< 3 µM	< 3 µM
COCCC(CC(=O)Nc1ccc(C)cc1C)c1nnc(CCC2CCCCC2)n1C1CC1 (racemic) [Example F-396]	< 3 µM	< 3 µM
Cc1ccc(NC(=O)[C@H]2CN(S(C)(=O)=O)C[C@@H]2c2nnc(CCCC(C)(C)C)n2C2CC2)c(C)c1 (racemic) [Example F-397]	< 3 µM	< 3 µM
Cc1ccc(NC(=O)[C@H]2CN(S(=O)(=O)C(F)(F)F)C[C@@H]2c2nnc(CCCC(C)(C)C)n2C2CC2)c(C)c1 (racemic) [Example F-398]	< 3 µM	< 3 µM
COC(=O)N1C[C@H](C(=O)Nc2ccc(C)cc2C)[C@@H](c2nnc(CCCC(C)(C)C)n2C2CC2)C1 (racemic) [Example F-399]	< 3 µM	< 3 µM
CCC(=O)N1C[C@H](C(=O)Nc2ccc(C)cc2C)[C@@H](c2nnc(CCCC(C)(C)C)n2C2CC2)C1 (racemic) [Example F-400]	< 3 µM	< 3 µM
Cc1ccc(NC(=O)CC(CCCO)c2nnc(CCCC(C)(C)C)n2CC(F)(F)F)c(C)c1 (racemic) [Example F-401]	< 3 µM	< 3 µM
CC(=O)N1C[C@H](C(=O)Nc2ccc(C)cc2C)[C@@H](c2nnc(C3CN(C(=O)OC(C)(C)C)C3)n2C2CC2)C1 (racemic) [Example F-416]	> 3 µM	> 3 µM
CC(=O)N1C[C@H](C(=O)Nc2ccc(C)cc2C)[C@@H](c2nnc(C3CN(C(=O)CC(C)(C)C)C3)n2C2CC2)C1 (racemic) [Example F-417]	> 3 µM	> 3 µM
CC(=O)N1C[C@H](C(=O)Nc2ccc(C)cc2C)[C@@H](c2nnc(C3CN(S(=O)(=O)C(C)C)C3)n2C2CC2)C1 (racemic) [Example F-418]	> 3 µM	> 3 µM
CC(=O)N1C[C@H](C(=O)Nc2ccc(C)cc2C)[C@@H](c2nnc(C3CN(C(=O)N(C)C(C)C)C3)n2C2CC2)C1 (racemic) [Example F-419]	> 3 µM	> 3 µM
Cc1ccc(NC(=O)[C@H]2C[C@H](O)C[C@@H]2c2nnc([C@H]3C[C@@H](CC(C)C)C3)n2C2CC2)c(C)c1 (racemic) [Example F-421]	< 3 µM	< 3 µM
